ChEMBL document CHEMBL5236606, “Synthesis, Structure-Activity Relationships, and In Vivo Evaluation of Novel C-17 Amine Derivatives Based on GSK3640254 as HIV-1 Maturation Inhibitors with Broad Spectrum Activity” (J Med Chem, 2022)
Converted amounts (≈) assume the structure as drawn.

What was measured:
[1] = test system: Human immunodeficiency virus 1; experiment: Antiviral activity against wild type HIV-1 NLRepRlucP373S harboring V370A mutant infected in human MT2 cells assessed as inhibition of viral growth measured after 4 to 5 days by Dual luciferase reporter assay; type: functional, organism-based; conditions: Human immunodeficiency virus 1, NLRepRlucP373S
[2] = test system: Human immunodeficiency virus 1; experiment: Antiviral activity against wild type HIV-1 NLRepRlucP373S harboring deltaV370 mutant infected in human MT2 cells assessed as inhibition of viral growth measured after 4 to 5 days by Dual luciferase reporter assay; type: functional, organism-based; conditions: Human immunodeficiency virus 1, NLRepRlucP373S
[3] = Metabolic stability in rat liver microsomes assessed as half life at 0.5 uM in presence of NADPH by LC-MS/MS analysis; type: ADME, Microsome
[4] = Clearance in Sprague-Dawley rat at 1 mg/kg, iv by LC-MS/MS analysis; type: ADME, organism-based; conditions: in vivo
[5] = Fold resistance, ratio of EC50 for antiviral activity against wild type HIV-1 NLRepRlucP373S infected in human MT2 cells assessed as inhibition of viral growth in presence of 10% FBS and 40% human serum supplemented with 27mg/mL of human serum albumin to EC50 for antiviral activity against wild type HIV-1 NLRepRlucP373S infected in human MT2 cells assessed as inhibition of viral growth; type: functional, Human immunodeficiency virus 1
[6] = Half life in Sprague-Dawley rat at 1 mg/kg, iv by LC-MS/MS analysis; type: ADME, organism-based; conditions: in vivo
[7] = AUCt in Sprague-Dawley rat at 5 mg/kg, po by LC-MS/MS analysis; type: ADME, organism-based; set-up: dose 5 mg/kg, route po; conditions: in vivo
[8] = Cytotoxicity against human MT2 cells assessed as reduction in cell viability; type: toxicity, cell-based
[9] = test system: Human immunodeficiency virus 1; experiment: Antiviral activity against wild type HIV-1 NLRepRlucP373S harboring V362I/V370A mutant infected in human MT2 cells assessed as inhibition of viral growth measured after 4 to 5 days by Dual luciferase reporter assay; type: functional, organism-based; conditions: Human immunodeficiency virus 1, NLRepRlucP373S
[10] = Metabolic stability in dog liver microsomes assessed as half life at 0.5 uM in presence of NADPH by LC-MS/MS analysis; type: ADME, Canis lupus familiaris, Microsome
[11] = Volume of distribution at steady state in Sprague-Dawley rat at 1 mg/kg, iv by LC-MS/MS analysis; type: ADME, organism-based; conditions: in vivo, read-out: Vdss
[12] = Solubility of the compound in FeSSIF at pH 5.0; type: ADME
[13] = test system: Human immunodeficiency virus 1; experiment: Antiviral activity against wild type HIV-1 NLRepRlucP373S infected in human MT2 cells assessed as inhibition of viral growth measured after 4 to 5 days by Dual luciferase reporter assay; type: functional, organism-based; conditions: Human immunodeficiency virus 1, NLRepRlucP373S
[14] = test system: Human immunodeficiency virus 1; experiment: Antiviral activity against wild type HIV-1 NLRepRlucP373S harboring T332S/V362I/prR41G mutant infected in human MT2 cells assessed as inhibition of viral growth measured after 4 to 5 days by Dual luciferase reporter assay; type: functional, organism-based; conditions: Human immunodeficiency virus 1, NLRepRlucP373S
[15] = test system: Human immunodeficiency virus 1; experiment: Antiviral activity against wild type HIV-1 NLRepRlucP373S harboring R361K/V362I/L363M mutant infected in human MT2 cells assessed as inhibition of viral growth measured after 4 to 5 days by Dual luciferase reporter assay; type: functional, organism-based; conditions: Human immunodeficiency virus 1, NLRepRlucP373S
[16] = Oral bioavailability in Sprague-Dawley rat at 5 mg/kg by LC-MS/MS analysis; type: ADME, organism-based; conditions: in vivo
[17] = Metabolic stability in human liver microsomes assessed as half life at 0.5 uM in presence of NADPH by LC-MS/MS analysis; type: ADME, Microsome
[18] = Solubility of compound in FaSSIF at pH 6.5; type: ADME
[19] = Cmax in Sprague-Dawley rat at 5 mg/kg, po by LC-MS/MS analysis; type: ADME, organism-based; set-up: dose 5 mg/kg, route po; conditions: in vivo
[20] = test system: Human immunodeficiency virus 1; experiment: Antiviral activity against wild type HIV-1 NLRepRlucP373S infected in human MT2 cells assessed as inhibition of viral growth measured after 4 to 5 days in presence of 10% FBS and 40% human serum supplemented with 27 mg/mL of human serum albumin by Dual luciferase reporter assay; type: functional, organism-based; conditions: Human immunodeficiency virus 1, NLRepRlucP373S
[21] = test system: Human immunodeficiency virus 1; experiment: Antiviral activity against wild type HIV-1 NLRepRlucP373S harboring A326T/V362I/V370A mutant infected in human MT2 cells assessed as inhibition of viral growth measured after 4 to 5 days by Dual luciferase reporter assay; type: functional, organism-based; conditions: Human immunodeficiency virus 1, NLRepRlucP373S
[22] = MRT in Sprague-Dawley rat at 1 mg/kg, iv by LC-MS/MS analysis; type: ADME, organism-based; conditions: in vivo
[23] = biological target: Albumin (Homo sapiens, UniProt P02768); experiment: Protein binding in human serum albumin assessed as fraction bound at 53 nM incubated for 1 hrs by ultracentrifugation method; type: ADME, cell-free; conditions: read-out: PPB (converted)
[24] = Protein binding in human plasma by ultracentrifugation method; type: ADME, cell-free; conditions: read-out: PPB
[25] = AUCt in Beagle dog at 5 mg/kg, po administered as spray-dried dispersion in 99.5% water/0.5% methocel E4M by LC-MS/MS analysis; type: ADME, organism-based, Canis lupus familiaris; set-up: dose 5 mg/kg, route po; conditions: in vivo
[26] = Half life in Beagle dog at 1 mg/kg, iv by LC-MS/MS analysis; type: ADME, organism-based, Canis lupus familiaris; conditions: in vivo
[27] = Cmax in Beagle dog at 5 mg/kg, po administered as solution in 98% citrate buffer/2% sulfobutylether-beta-cyclodextrin by LC-MS/MS analysis; type: ADME, organism-based, Canis lupus familiaris; set-up: dose 5 mg/kg, route po; conditions: in vivo
[28] = AUCt in Beagle dog at 5 mg/kg, po administered as solution in 98% citrate buffer/2% sulfobutylether-beta-cyclodextrin by LC-MS/MS analysis; type: ADME, organism-based, Canis lupus familiaris; set-up: dose 5 mg/kg, route po; conditions: in vivo
[29] = Oral bioavailability in Beagle dog at 5 mg/kg administered as solution in 98% citrate buffer/2% sulfobutylether-beta-cyclodextrin by LC-MS/MS analysis; type: ADME, organism-based, Canis lupus familiaris; conditions: in vivo
[30] = Cmax in Beagle dog at 5 mg/kg, po administered as spray-dried dispersion in 99.5% water/0.5% methocel E4M by LC-MS/MS analysis; type: ADME, organism-based, Canis lupus familiaris; set-up: dose 5 mg/kg, route po; conditions: in vivo
[31] = Oral bioavailability in Beagle dog at 5 mg/kg administered as spray-dried dispersion in 99.5% water/0.5% methocel E4M by LC-MS/MS analysis; type: ADME, organism-based, Canis lupus familiaris; conditions: in vivo
[32] = Volume of distribution at steady state in Beagle dog at 1 mg/kg, iv by LC-MS/MS analysis; type: ADME, organism-based, Canis lupus familiaris; conditions: in vivo, read-out: Vdss
[33] = MRT in Beagle dog at 1 mg/kg, iv by LC-MS/MS analysis; type: ADME, organism-based, Canis lupus familiaris; conditions: in vivo
[34] = Clearance in Beagle dog at 1 mg/kg, iv by LC-MS/MS analysis; type: ADME, organism-based, Canis lupus familiaris; conditions: in vivo

Albumin, sequence (P02768 whole entry): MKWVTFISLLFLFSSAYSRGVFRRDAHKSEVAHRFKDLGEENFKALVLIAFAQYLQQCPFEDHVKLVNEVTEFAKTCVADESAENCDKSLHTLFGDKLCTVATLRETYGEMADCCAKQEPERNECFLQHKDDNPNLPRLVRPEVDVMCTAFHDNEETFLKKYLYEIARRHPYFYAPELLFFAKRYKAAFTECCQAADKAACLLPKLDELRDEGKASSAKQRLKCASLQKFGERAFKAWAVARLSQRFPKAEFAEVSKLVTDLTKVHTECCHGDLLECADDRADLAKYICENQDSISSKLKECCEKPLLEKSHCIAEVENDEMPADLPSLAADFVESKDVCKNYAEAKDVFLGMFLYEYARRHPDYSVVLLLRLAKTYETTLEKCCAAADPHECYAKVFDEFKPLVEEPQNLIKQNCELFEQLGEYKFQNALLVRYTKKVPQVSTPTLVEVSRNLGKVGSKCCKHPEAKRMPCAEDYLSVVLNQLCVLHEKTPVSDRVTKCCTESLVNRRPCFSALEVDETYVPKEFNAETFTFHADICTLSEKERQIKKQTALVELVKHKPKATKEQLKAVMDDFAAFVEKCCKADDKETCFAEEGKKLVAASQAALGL

| Structure (SMILES) | EC50 [1] | EC50 [2] | half-life at 0.5 µM [3] | clearance [4] | fold change (FC) [5] | half-life [6] | AUC(0-t) [7] | CC50 [8] | EC50 [9] | half-life at 0.5 µM [10] | Vd [11] | solubility [12] | EC50 [13] | EC50 [14] | EC50 [15] | bioavailability [16] | half-life at 0.5 µM [17] | solubility [18] | Cmax [19] | EC50 [20] | further results |
| --- | --- | --- | --- | --- | --- | --- | --- | --- | --- | --- | --- | --- | --- | --- | --- | --- | --- | --- | --- | --- | --- |
| C=C(C)[C@@H]1CC[C@]2(C(=O)NCCOC)CC[C@]3(C)[C@H](CC[C@@H]4[C@@]5(C)CC=C(c6ccc(C(=O)O)cc6)C(C)(C)[C@@H]5CC[C@]43C)[C@@H]12 | 152 nM |  |  |  |  |  |  |  |  |  |  |  |  |  |  |  |  |  |  |  |  |
| C=C(C)[C@@H]1CC[C@]2(C(=O)NCCO)CC[C@]3(C)[C@H](CC[C@@H]4[C@@]5(C)CC=C(c6ccc(C(=O)O)cc6)C(C)(C)[C@@H]5CC[C@]43C)[C@@H]12 | 41 nM | > 2000 nM |  |  |  |  |  |  |  |  |  |  |  |  |  |  |  |  |  |  |  |
| C=C(C)[C@@H]1CC[C@]2(NCC[C@]3(O)CC[C@](C)(O)CC3)CC[C@]3(C)[C@H](CC[C@@H]4[C@@]5(C)CC=C(C6=CC[C@](CF)(C(=O)O)CC6)C(C)(C)[C@@H]5CC[C@]43C)[C@@H]12 |  | 6 nM | > 2 h | 3.7 mL/min/kg | 6.3 | 3.9 h | 6.19 µM·h | 16000 nM | 3.8 nM | > 2 h | 0.8 L/kg | > 480 µM | 2.1 nM | 8.1 nM | 5.1 nM | 20% | > 2 h | < 1 µM | 720 nM | 13 nM | EC50 [21]: 8 nM; MRT [22]: 3.6 h; fraction unbound at 1 h, 0.053 µM [23]: 0.11 |
| C=C(C)[C@@H]1CC[C@]2(C(=O)O)CC[C@]3(C)[C@H](CC[C@@H]4[C@@]5(C)CC[C@H](OC(=O)CC(C)(C)C(=O)O)C(C)(C)[C@@H]5CC[C@]43C)[C@@H]12 [BEVIRIMAT] |  |  |  |  | 97 |  |  |  |  |  |  |  |  |  |  |  |  |  |  |  | fraction unbound [24]: < 0.001 |
| C=C(C)[C@@H]1CC[C@]2(NCC[C@]3(O)CC[C@@H](S(C)(=O)=O)CC3)CC[C@]3(C)[C@H](CC[C@@H]4[C@@]5(C)CC=C(C6=CC[C@](CF)(C(=O)O)CC6)C(C)(C)[C@@H]5CC[C@]43C)[C@@H]12 | 3 nM | 5.1 nM | 1.42 h | 3.5 mL/min/kg | 5.8 | 4.2 h | 8.11 µM·h | 21000 nM | 2 nM | > 2 h | 0.8 L/kg | > 700 µM | 1.6 nM | 6.4 nM | 4.5 nM | 24% | 1.38 h | 21 µM (≈ 16.2 µg/mL) | 830 nM | 9.3 nM | AUC(0-t) [25]: 35.3 µM·h; half-life [26]: 13.4 h; Cmax [27]: 1610 nM; AUC(0-t) [28]: 23.3 µM·h; bioavailability [29]: 21%; Cmax [30]: 1960 nM; bioavailability [31]: 31%; Vd [32]: 0.31 L/kg; MRT [33]: 13.2 h; clearance [34]: 0.38 mL/min/kg; EC50 [21]: 4.3 nM; MRT [22]: 3.8 h; fraction unbound at 1 h, 0.053 µM [23]: 0.11 |
| C=C(C)[C@@H]1CC[C@]2(NCCC3(O)COC3)CC[C@]3(C)[C@H](CC[C@@H]4[C@@]5(C)CC=C(C6=CC[C@](CF)(C(=O)O)CC6)C(C)(C)[C@@H]5CC[C@]43C)[C@@H]12 |  | 5.3 nM | 1.33 h | 6.5 mL/min/kg | 10 | 3.6 h | 27.3 µM·h | 18000 nM | 4.1 nM | > 2 h | 1 L/kg | 32 µM (≈ 21.3 µg/mL) | 1.7 nM | 7 nM | 6.1 nM | 140% | > 2 h | 4 µM (≈ 2.66 µg/mL) | 3860 nM | 17 nM | EC50 [21]: 6.6 nM; MRT [22]: 2.7 h; fraction unbound at 1 h, 0.053 µM [23]: 0.12 |
